Assay results published in PMC11277489, “Novel Piperazine Derivatives of Vindoline as Anticancer Agents” (International Journal of Molecular Sciences, 2024).

Experiments:
CCRF-CEM = assay: NCI60 one-dose screen (10 μM), Leukemia; format: cell-based; conditions: Homo sapiens, 10 μM, Leukemia, read-out: Growth percent rate
HL-60(TB) = assay: NCI60 one-dose screen (10 μM), Leukemia; format: cell-based; conditions: Homo sapiens; 10 μM; HL-60(TB), Leukemia; read-out: Growth percent rate
K-562 = assay: NCI60 one-dose screen (10 μM), Leukemia; format: cell-based; conditions: Homo sapiens, K562; 10 μM; K-562, Leukemia; read-out: Growth percent rate
MOLT-4 = assay: NCI60 one-dose screen (10 μM), Leukemia; format: cell-based, human; conditions: Homo sapiens; 10 μM; MOLT-4, Leukemia; read-out: Growth percent rate
RPMI-8226 = assay: NCI60 one-dose screen (10 μM), Leukemia; format: cell-based; conditions: Homo sapiens; 10 μM; RPMI-8226, Leukemia; read-out: Growth percent rate
A549/ATCC = assay: NCI60 one-dose screen (10 μM), Non-small Cell Lung Cancer; format: cell-based; conditions: Homo sapiens; 10 μM; A549/ATCC, Non-small Cell Lung Cancer; read-out: Growth percent rate
EKVX = assay: as above; format: cell-based; conditions: Homo sapiens, 10 μM, Non-small Cell Lung Cancer, read-out: Growth percent rate
HOP-62 = assay: as above; format: cell-based; conditions: Homo sapiens; 10 μM; HOP-62, Non-small Cell Lung Cancer; read-out: Growth percent rate
NCI-H23 = assay: as above; format: cell-based; conditions: Homo sapiens; 10 μM; NCI-H23, Non-small Cell Lung Cancer; read-out: Growth percent rate
NCI-H322M = assay: as above; format: cell-based; conditions: Homo sapiens, 10 μM, Non-small Cell Lung Cancer, read-out: Growth percent rate
NCI-H522 = assay: as above; format: cell-based; conditions: Homo sapiens; 10 μM; NCI-H522, Non-small Cell Lung Cancer; read-out: Growth percent rate
COLO 205 = assay: NCI60 one-dose screen (10 μM), Colon Cancer; format: cell-based, human; conditions: Homo sapiens; 10 μM; COLO 205, Colon Cancer; read-out: Growth percent rate
HCC-2998 = assay: NCI60 one-dose screen (10 μM), Colon Cancer; format: cell-based; conditions: Homo sapiens; 10 μM; HCC-2998, Colon Cancer; read-out: Growth percent rate
HCT-116 = assay: NCI60 one-dose screen (10 μM), Colon Cancer; format: cell-based; conditions: Homo sapiens; 10 μM; HCT-116, Colon Cancer; read-out: Growth percent rate
HCT-15 = assay: NCI60 one-dose screen (10 μM), Colon Cancer; format: cell-based; conditions: Homo sapiens; 10 μM; HCT-15, Colon Cancer; read-out: Growth percent rate
HT29 = assay: NCI60 one-dose screen (10 μM), Colon Cancer; format: cell-based; conditions: Homo sapiens, HT-29; 10 μM; HT29, Colon Cancer; read-out: Growth percent rate
KM12 = assay: NCI60 one-dose screen (10 μM), Colon Cancer; format: cell-based, human; conditions: Homo sapiens; 10 μM; KM12, Colon Cancer; read-out: Growth percent rate
SW-620 = assay: NCI60 one-dose screen (10 μM), Colon Cancer; format: cell-based; conditions: Homo sapiens; 10 μM; SW-620, Colon Cancer; read-out: Growth percent rate
SF-268 = assay: NCI60 one-dose screen (10 μM), CNS Cancer; format: cell-based; conditions: Homo sapiens; 10 μM; SF-268, CNS Cancer; read-out: Growth percent rate
SF-295 = assay: NCI60 one-dose screen (10 μM), CNS Cancer; format: cell-based; conditions: Homo sapiens; 10 μM; SF-295, CNS Cancer; read-out: Growth percent rate
SF-539 = assay: NCI60 one-dose screen (10 μM), CNS Cancer; format: cell-based, human; conditions: Homo sapiens; 10 μM; SF-539, CNS Cancer; read-out: Growth percent rate
SNB-19 = assay: NCI60 one-dose screen (10 μM), CNS Cancer; format: cell-based; conditions: Homo sapiens; 10 μM; SNB-19, CNS Cancer; read-out: Growth percent rate
LOX IMVI = assay: NCI60 one-dose screen (10 μM), Melanoma; format: cell-based, human; conditions: Homo sapiens; 10 μM; LOX IMVI, Melanoma; read-out: Growth percent rate
MALME-3M = assay: NCI60 one-dose screen (10 μM), Melanoma; format: cell-based; conditions: Homo sapiens; 10 μM; MALME-3M, Melanoma; read-out: Growth percent rate
M14 = assay: NCI60 one-dose screen (10 μM), Melanoma; format: cell-based; conditions: Homo sapiens; 10 μM; M14, Melanoma; read-out: Growth percent rate
MDA-MB-435 = assay: NCI60 one-dose screen (10 μM), Melanoma; format: cell-based; conditions: Homo sapiens; 10 μM; MDA-MB-435, Melanoma; read-out: Growth percent rate
SK-MEL-2 = assay: NCI60 one-dose screen (10 μM), Melanoma; format: cell-based; conditions: Homo sapiens; 10 μM; SK-MEL-2, Melanoma; read-out: Growth percent rate
SK-MEL-28 = assay: NCI60 one-dose screen (10 μM), Melanoma; format: cell-based; conditions: Homo sapiens; 10 μM; SK-MEL-28, Melanoma; read-out: Growth percent rate
SK-MEL-5 = assay: NCI60 one-dose screen (10 μM), Melanoma; format: cell-based, human; conditions: Homo sapiens; 10 μM; SK-MEL-5, Melanoma; read-out: Growth percent rate
UACC-257 = assay: NCI60 one-dose screen (10 μM), Melanoma; format: cell-based; conditions: Homo sapiens; 10 μM; UACC-257, Melanoma; read-out: Growth percent rate
IGROV1 = assay: NCI60 one-dose screen (10 μM), Ovarian Cancer; format: cell-based; conditions: Homo sapiens, IGROV-1; 10 μM; IGROV1, Ovarian Cancer; read-out: Growth percent rate
OVCAR-3 = assay: NCI60 one-dose screen (10 μM), Ovarian Cancer; format: cell-based; conditions: Homo sapiens; 10 μM; OVCAR-3, Ovarian Cancer; read-out: Growth percent rate
OVCAR-4 = assay: NCI60 one-dose screen (10 μM), Ovarian Cancer; format: cell-based; conditions: Homo sapiens; 10 μM; OVCAR-4, Ovarian Cancer; read-out: Growth percent rate
OVCAR-8 = assay: NCI60 one-dose screen (10 μM), Ovarian Cancer; format: cell-based; conditions: Homo sapiens; 10 μM; OVCAR-8, Ovarian Cancer; read-out: Growth percent rate
786–0 = assay: NCI60 one-dose screen (10 μM), Renal Cancer; format: cell-based; conditions: Homo sapiens; 10 μM; 786-0, Renal Cancer; read-out: Growth percent rate
ACHN = assay: NCI60 one-dose screen (10 μM), Renal Cancer; format: cell-based; conditions: Homo sapiens, 10 μM, Renal Cancer, read-out: Growth percent rate
CAKI-1 = assay: NCI60 one-dose screen (10 μM), Renal Cancer; format: cell-based; conditions: Homo sapiens; 10 μM; CAKI-1, Renal Cancer; read-out: Growth percent rate
RXF 393 = assay: NCI60 one-dose screen (10 μM), Renal Cancer; format: cell-based, human; conditions: Homo sapiens; 10 μM; RXF 393, Renal Cancer; read-out: Growth percent rate
SN12C = assay: NCI60 one-dose screen (10 μM), Renal Cancer; format: cell-based; conditions: Homo sapiens, 10 μM, Renal Cancer, read-out: Growth percent rate
TK-10 = assay: NCI60 one-dose screen (10 μM), Renal Cancer; format: cell-based; conditions: Homo sapiens; 10 μM; TK-10, Renal Cancer; read-out: Growth percent rate
MCF7 = assay: NCI60 one-dose screen (10 μM), Breast Cancer; format: cell-based; conditions: Homo sapiens; 10 μM; MCF7, Breast Cancer; read-out: Growth percent rate
HS 578T = assay: NCI60 one-dose screen (10 μM), Breast Cancer; format: cell-based; conditions: Homo sapiens; 10 μM; HS 578T, Breast Cancer; read-out: Growth percent rate

CC[C@]12C=CCN3CC[C@@]4(c5ccc(OC)cc5N(C)[C@H]4[C@@](O)(C(=O)OC)[C@@H]1OC(=O)CCC(=O)N1CCN(C)CC1)[C@@H]32 [Compound 27]
activity at 10 µM (CCRF-CEM): 104%
activity at 10 µM (HL-60(TB)): 112%
activity at 10 µM (K-562): 124%
activity at 10 µM (MOLT-4): 100%
activity at 10 µM (RPMI-8226): 94.5%
activity at 10 µM (A549/ATCC): 94.2%
activity at 10 µM (EKVX): 90.7%
activity at 10 µM (HOP-62): 119%
activity at 10 µM (NCI-H23): 98.9%
activity at 10 µM (NCI-H322M): 110%
activity at 10 µM (NCI-H522): 84.5%
activity at 10 µM (COLO 205): 118%
activity at 10 µM (HCC-2998): 86.5%
activity at 10 µM (HCT-116): 103%
activity at 10 µM (HCT-15): 103%
activity at 10 µM (HT29): 96.7%
activity at 10 µM (KM12): 100%
activity at 10 µM (SW-620): 105%
activity at 10 µM (SF-268): 99.5%
activity at 10 µM (SF-295): 97.9%
activity at 10 µM (SF-539): 100%
activity at 10 µM (SNB-19): 108%
activity at 10 µM (LOX IMVI): 93%
activity at 10 µM (MALME-3M): 112%
activity at 10 µM (M14): 114%
activity at 10 µM (MDA-MB-435): 121%
activity at 10 µM (SK-MEL-2): 88.2%
activity at 10 µM (SK-MEL-28): 94.8%
activity at 10 µM (SK-MEL-5): 91.5%
activity at 10 µM (UACC-257): 99.2%
activity at 10 µM (IGROV1): 96.8%
activity at 10 µM (OVCAR-3): 89.2%
activity at 10 µM (OVCAR-4): 105%
activity at 10 µM (OVCAR-8): 99.6%
activity at 10 µM (786–0): 99.7%
activity at 10 µM (ACHN): 99.2%
activity at 10 µM (CAKI-1): 96.6%
activity at 10 µM (RXF 393): 82.3%
activity at 10 µM (SN12C): 86.7%
activity at 10 µM (TK-10): 91.9%
activity at 10 µM (MCF7): 81%
activity at 10 µM (HS 578T): 70.8%
